Literature values as cited in patent publication US8372434B2, “Ophthalmic oil-in-water type emulsion with stable positive zeta potential” (Novagali Pharma SA, priority 2004, dated 2013).

Conditions: at 0.1% or 0.3% w/v

SMILES | safety for ocular administration
CCCCCCCCCCCCCCCCCCN [stearylamine] | safe for ocular administration
CCCCCCCC/C=C\CCCCCCCCN [oleylamine] | safe for ocular administration
